As a reminder, the Km is the substrate concentration at which the rate is half of its maximum.

The test has as its target T1, PipM (piperine hydrolase) (Rhodococcus erythropolis, UniProt Z9TMQ3P3F8).
T1 construct: full length, no signal peptide, untagged (pET24a(+)-pipM), E. coli Rosetta2 (DE3); ORF 1389 nt (462 residues deduced), ~50 kDa monomer, homotetramer ~220 kDa; N-terminus of native protein NSFALSNV
T1 sequence (Z9TMQ3P3F8 1-462): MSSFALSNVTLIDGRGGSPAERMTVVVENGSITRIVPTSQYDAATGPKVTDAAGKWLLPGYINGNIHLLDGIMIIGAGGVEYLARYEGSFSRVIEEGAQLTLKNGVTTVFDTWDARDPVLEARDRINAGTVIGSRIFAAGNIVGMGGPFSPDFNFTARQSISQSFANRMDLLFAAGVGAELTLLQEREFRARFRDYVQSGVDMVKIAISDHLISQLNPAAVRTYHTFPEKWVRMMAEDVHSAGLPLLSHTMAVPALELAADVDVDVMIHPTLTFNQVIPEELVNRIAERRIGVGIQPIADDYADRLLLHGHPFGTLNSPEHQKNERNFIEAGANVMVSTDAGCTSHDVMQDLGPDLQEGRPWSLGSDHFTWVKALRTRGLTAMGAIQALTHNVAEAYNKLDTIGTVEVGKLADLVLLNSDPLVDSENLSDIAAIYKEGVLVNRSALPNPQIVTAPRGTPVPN
Nature of the test: HPLC at […] nm of piperic acid formation, Michaelis-Menten fit. The format is biochemical. Particulars: 50 mM potassium phosphate pH 7.5, 28 °C, 1 min, 0.116 μM PipM, 0.001-0.5 mM piperine.

As to `O=C(/C=C/C=C/c1ccc2c(c1)OCO2)N1CCCCC1` [piperine], the Km came out at 2.11 ± 0.31 µM.

The values above are taken from paper PMC12753220, “A new amidohydrolase and β-oxidation–like pathway for piperine catabolism in soil actinomycetes” (The Journal of Biological Chemistry, 2025).
